From patent publication US12606541B2, “PPARg modulators and methods of use” (Eisai R&D Management Co., Ltd., priority 2020, dated 2026)

What follows are compounds tested against T1, His6-TEV-PPARγ-(234-505) (Homo sapiens, UniProt P37231) (assay: TR-FRET Assay to Measure Co-R Peptide Recruitment to PPARγ). Details: Co-R peptide recruitment to PPARγ; read-out: TR-FRET AC50.
T1 construct: The His6-TEV-PPARγ-(234-505) protein for assay was expressed and purified; TEV cleavage site (N); made in house
T1 sequence (P37231 234-505): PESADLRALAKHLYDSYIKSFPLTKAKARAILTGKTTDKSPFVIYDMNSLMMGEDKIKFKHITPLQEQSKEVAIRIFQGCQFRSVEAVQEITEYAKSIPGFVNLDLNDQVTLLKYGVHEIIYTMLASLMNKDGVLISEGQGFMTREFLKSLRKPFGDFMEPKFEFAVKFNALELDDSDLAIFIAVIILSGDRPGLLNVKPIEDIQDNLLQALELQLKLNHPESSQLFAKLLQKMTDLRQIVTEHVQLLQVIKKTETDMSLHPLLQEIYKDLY
Format: biochemical
Procedure, shortened: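 Corepressor recruitment is measured by adding terbium-labeled anti-His antibody and FITC SMRT-ID2 peptide, at 5 and 200 nM final, after a 20-minute room-temperature protein–compound incubation. After one further hour, signal is converted to percent response between DMSO and 500 nM T0070907 wells.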

AC50, > 1000 nM:
COc1cc(-c2cc(C(=O)N3CCC(C(=O)NCc4cccc(=O)[nH]4)CC3)n[nH]2)c(Cl)cn1 [1-[5-(5-chloro-2-methoxypyridin-4-yl)-1H-pyrazole-3-carbonyl]-N-[(6-oxo-1,6-dihydropyridin-2-yl)methyl]piperidine-4-carboxamide]
COc1cc(-c2cc(C(=O)N3CCC(C(=O)NCc4ccc(=O)[nH]c4)CC3)n[nH]2)c(Cl)cn1 [1-[5-(5-chloro-2-methoxypyridin-4-yl)-1H-pyrazole-3-carbonyl]-N-[(6-oxo-1,6-dihydropyridin-3-yl)methyl]piperidine-4-carboxamide]
COc1cc(-c2cc(C(=O)N3CCC(C(=O)NCc4nccc(=O)[nH]4)CC3)n[nH]2)c(Cl)cn1 [1-[5-(5-chloro-2-methoxypyridin-4-yl)-1H-pyrazole-3-carbonyl]-N-[(6-oxo-1,6-dihydropyrimidin-2-yl)methyl]piperidine-4-carboxamide]
COc1cc(-c2cc(C(=O)N3CCC(C(=O)N[C@@H]4CCCc5cccnc54)CC3)n[nH]2)c(Cl)cn1 [1-[5-(5-chloro-2-methoxypyridin-4-yl)-1H-pyrazole-3-carbonyl]-N-[(8R)-5,6,7,8-tetrahydroquinolin-8-yl]piperidine-4-carboxamide]
COc1cc(-c2cc(C(=O)N3CCC(C(=O)N[C@H]4CCCc5cccnc54)CC3)n[nH]2)c(Cl)cn1 [1-[5-(5-chloro-2-methoxypyridin-4-yl)-1H-pyrazole-3-carbonyl]-N-[(8S)-5,6,7,8-tetrahydroquinolin-8-yl]piperidine-4-carboxamide]
COc1cc(-c2cc(C(=O)N3CCC(C(=O)NCC4CCCCO4)CC3)n[nH]2)c(Cl)cn1 (stereo not shown) [1-[5-(5-chloro-2-methoxypyridin-4-yl)-1H-pyrazole-3-carbonyl]-N-[(oxan-2-yl)methyl]piperidine-4-carboxamide]
COc1cc(-c2cc(C(=O)N3CCC(C(=O)NCC4CCCOC4)CC3)n[nH]2)c(Cl)cn1 (stereo not shown) [1-[5-(5-chloro-2-methoxypyridin-4-yl)-1H-pyrazole-3-carbonyl]-N-[(oxan-3-yl)methyl]piperidine-4-carboxamide]
COc1cc(-c2cc(C(=O)N3CCC(C(=O)NCC4CCCO4)CC3)n[nH]2)c(Cl)cn1 (stereo not shown) [1-[5-(5-chloro-2-methoxypyridin-4-yl)-1H-pyrazole-3-carbonyl]-N-[(oxolan-2-yl)methyl]piperidine-4-carboxamide]
COc1cc(-c2cc(C(=O)N3CCC(C(=O)NCc4cnccn4)CC3)n[nH]2)c(Cl)cn1 [1-[5-(5-chloro-2-methoxypyridin-4-yl)-1H-pyrazole-3-carbonyl]-N-[(pyrazin-2-yl)methyl]piperidine-4-carboxamide]
COc1cc(-c2cc(C(=O)N3CCC(C(=O)NCc4cccnn4)CC3)n[nH]2)c(Cl)cn1 [1-[5-(5-chloro-2-methoxypyridin-4-yl)-1H-pyrazole-3-carbonyl]-N-[(pyridazin-3-yl)methyl]piperidine-4-carboxamide]
COc1cc(-c2cc(C(=O)N3CCC(C(=O)NCc4ncccn4)CC3)n[nH]2)c(Cl)cn1 [1-[5-(5-chloro-2-methoxypyridin-4-yl)-1H-pyrazole-3-carbonyl]-N-[(pyrimidin-2-yl)methyl]piperidine-4-carboxamide]
COc1cc(-c2cc(C(=O)N3CCC(C(=O)NCc4ccncn4)CC3)n[nH]2)c(Cl)cn1 [1-[5-(5-chloro-2-methoxypyridin-4-yl)-1H-pyrazole-3-carbonyl]-N-[(pyrimidin-4-yl)methyl]piperidine-4-carboxamide]
COc1cc(-c2cc(C(=O)N3CCC(C(=O)NC4CC4)CC3)n[nH]2)c(Cl)cn1 [1-[5-(5-chloro-2-methoxypyridin-4-yl)-1H-pyrazole-3-carbonyl]-N-cyclopropylpiperidine-4-carboxamide]
